Test results reported in the supplement of paper PMC7017272.
± gives the standard deviation of the averaged measurements.

Columns and labels:
Conditions in all cases: treatment time: 3 days
UT-SCC-42A [1] = test: relative IC50 (midpoint of the fitted curve; maximal inhibition may be below 50%); higher = less potent
Summary of the method: (§1)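 Viability was read with CellTiter-Glo 2.0 luminescence and scaled against vehicle (0.1% DMSO) and cell-killing control wells. The assay used HPV-negative HNSCC cell lines at 500 cells/well in 384-well plates, grown on plastic, on Matrigel or Myogel coatings (500 µg/mL), or embedded in Matrigel or Myogel plus rat collagen I, and treated for 3 days at five 10-fold concentrations. IC50, maximal inhibition and drug sensitivity score were derived from percent-inhibition dose–response curves fitted in the FIMM pipeline.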

UT-SCC-44 [2] = test: as above
Summary of the method: as §1

UT-SCC-73 [3] = test: as above
Summary of the method: as §1

UT-SCC-42B [4] = test: as above
Summary of the method: as §1

UT-SCC-106A [5] = test: as above
Summary of the method: as §1

UT-SCC-24A [6] = test: maximal % inhibition of viability relative to DMSO; higher = stronger effect
Protocol: (§2)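 HNSCC cell lines (500 cells/well, 384-well) were cultured on plastic, on top of (2D) or embedded (3D) in Matrigel or human leiomyoma matrix Myogel (500 ug/mL; Myogel 3D mixed with rat collagen I). Cells were treated for 3 days with 5 ten-fold concentrations of each drug, and viability was read by CellTiter-Glo. Viability was normalised to DMSO (0% inhibition) and 100 uM benzethonium chloride (100% inhibition) controls and fitted with the FIMM DSRT pipeline to give IC50 (nM), maximal % inhibition and the drug sensitivity score (DSS). Suffixes _1/_2/_3 on drug names are replicates.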

UT-SCC-24A [7] = test: relative IC50 (midpoint of the fitted curve; maximal inhibition may be below 50%); higher = less potent
Protocol: as §2

UT-SCC-28 = test: drug sensitivity score (DSS); higher = more sensitive; extreme values may be limits of the assay
Summary of the method: as §1

UT-SCC-8 = test: as above
Summary of the method: as §1

UT-SCC-42A [8] = test: as above
Summary of the method: as §1

UT-SCC-44 [9] = test: as above
Summary of the method: as §1

UT-SCC-73 [10] = test: as above
Summary of the method: as §1

UT-SCC-42B [11] = test: as above
Summary of the method: as §1

UT-SCC-24B = test: as above
Summary of the method: as §1

UT-SCC-40 = test: as above
Summary of the method: as §1

UT-SCC-14 = test: as above
Summary of the method: as §1

UT-SCC-106A [12] = test: as above
Summary of the method: as §1

UT-SCC-81 = test: as above
Summary of the method: as §1

[13] = culture condition: embedded in Matrigel
[14] = culture condition: on top of Matrigel
[15] = culture condition: on top of Myogel
[16] = culture condition: plastic 2D (no matrix)
[17] = culture condition: embedded in Myogel + collagen I

## Cn1cnc2c(F)c(Nc3ccc(Br)cc3F)c(C(=O)NOCCO)cc21 [Binimetinib]
UT-SCC-42A [1]; [13]
  relative IC50: 13.8 nM
UT-SCC-42A [1]; [14]
  relative IC50: 8.75 nM
UT-SCC-42A [1]; [15]
  relative IC50: 14.9 nM
UT-SCC-42A [1]; [16]
  relative IC50: 25.5 nM
UT-SCC-44 [2]; [13]
  relative IC50: 19.6 nM
UT-SCC-44 [2]; [15]
  relative IC50: 41.3 nM
UT-SCC-73 [3]; [13]
  relative IC50: 28.2 nM
UT-SCC-73 [3]; [14]
  relative IC50: 23.7 nM
UT-SCC-73 [3]; [15]
  relative IC50: 65.3 nM
UT-SCC-73 [3]; [16]
  relative IC50: 27.9 nM
UT-SCC-42B [4]; [13]
  relative IC50: 9.72 nM
UT-SCC-42B [4]; [14]
  relative IC50: 47.8 nM
UT-SCC-42B [4]; [16]
  relative IC50: 54.3 nM
UT-SCC-106A [5]; [13]
  relative IC50: 8.97 nM
UT-SCC-106A [5]; [14]
  relative IC50: 13.8 nM
UT-SCC-106A [5]; [15]
  relative IC50: 101 nM
UT-SCC-106A [5]; [16]
  relative IC50: 19.3 nM
UT-SCC-24A [6]; [13]
  maximal % inhibition of viability: 79.6 ± 1.9%
UT-SCC-24A [6]; [17]
  maximal % inhibition of viability: 37 ± 7.2%
UT-SCC-24A [6]; [14]
  maximal % inhibition of viability: 72.5 ± 1.2%
UT-SCC-24A [6]; [15]
  maximal % inhibition of viability: 35.6 ± 4.6%
UT-SCC-24A [6]; [16]
  maximal % inhibition of viability: 68.3 ± 1.5%
UT-SCC-24A [7]; [14]
  relative IC50: 5.41 nM
UT-SCC-24A [7]; [15]
  relative IC50: 17.3 nM
UT-SCC-24A [7]; [16]
  relative IC50: 6.48 nM
UT-SCC-28; [13]
  drug sensitivity score: 6.5 ± 2.1 DSS
UT-SCC-28; [17]
  drug sensitivity score: 0 DSS
UT-SCC-28; [14]
  drug sensitivity score: 4.43 ± 1.8 DSS
UT-SCC-28; [16]
  drug sensitivity score: 2.87 ± 2.4 DSS
UT-SCC-8; [13]
  drug sensitivity score: 5.73 ± 4.6 DSS
UT-SCC-8; [17]
  drug sensitivity score: 1.97 ± 3.4 DSS
UT-SCC-8; [14]
  drug sensitivity score: 3.73 ± 2.5 DSS
UT-SCC-8; [15]
  drug sensitivity score: 4.67 ± 4.2 DSS
UT-SCC-8; [16]
  drug sensitivity score: 3.83 ± 3.4 DSS
UT-SCC-42A [8]; [13]
  drug sensitivity score: 11.2 ± 1.7 DSS
UT-SCC-42A [8]; [17]
  drug sensitivity score: 5.2 ± 2.5 DSS
UT-SCC-42A [8]; [14]
  drug sensitivity score: 12.8 ± 2.1 DSS
UT-SCC-42A [8]; [15]
  drug sensitivity score: 5.1 ± 2.7 DSS
UT-SCC-42A [8]; [16]
  drug sensitivity score: 7.97 ± 0.65 DSS
UT-SCC-44 [9]; [13]
  drug sensitivity score: 13.9 ± 2.2 DSS
UT-SCC-44 [9]; [17]
  drug sensitivity score: 3.57 ± 1 DSS
UT-SCC-44 [9]; [14]
  drug sensitivity score: 11.4 ± 0.57 DSS
UT-SCC-44 [9]; [15]
  drug sensitivity score: 5.07 ± 1.4 DSS
UT-SCC-44 [9]; [16]
  drug sensitivity score: 7.77 ± 4.3 DSS
UT-SCC-73 [10]; [13]
  drug sensitivity score: 14.6 ± 0.67 DSS
UT-SCC-73 [10]; [17]
  drug sensitivity score: 9.93 ± 3.5 DSS
UT-SCC-73 [10]; [14]
  drug sensitivity score: 14.3 ± 0.8 DSS
UT-SCC-73 [10]; [15]
  drug sensitivity score: 8.03 ± 1.4 DSS
UT-SCC-73 [10]; [16]
  drug sensitivity score: 12 ± 1 DSS
UT-SCC-42B [11]; [13]
  drug sensitivity score: 16 ± 0.97 DSS
UT-SCC-42B [11]; [14]
  drug sensitivity score: 7.13 ± 3.2 DSS
UT-SCC-42B [11]; [15]
  drug sensitivity score: 1.77 ± 0.51 DSS
UT-SCC-42B [11]; [16]
  drug sensitivity score: 3.47 ± 0.32 DSS
UT-SCC-24B; [13]
  drug sensitivity score: 6.43 ± 1 DSS
UT-SCC-24B; [17]
  drug sensitivity score: 6.03 ± 2.4 DSS
UT-SCC-24B; [14]
  drug sensitivity score: 5.6 ± 0.53 DSS
UT-SCC-24B; [15]
  drug sensitivity score: 2.7 ± 0.61 DSS
UT-SCC-24B; [16]
  drug sensitivity score: 9.3 ± 1.2 DSS
UT-SCC-40; [13]
  drug sensitivity score: 16.3 ± 2.6 DSS
UT-SCC-40; [17]
  drug sensitivity score: 10.8 ± 4.3 DSS
UT-SCC-40; [14]
  drug sensitivity score: 11.7 ± 2.1 DSS
UT-SCC-40; [15]
  drug sensitivity score: 5.87 ± 1.8 DSS
UT-SCC-40; [16]
  drug sensitivity score: 7.63 ± 2 DSS
UT-SCC-14; [13]
  drug sensitivity score: 6 ± 4.4 DSS
UT-SCC-14; [17]
  drug sensitivity score: 4.73 ± 3.5 DSS
UT-SCC-14; [14]
  drug sensitivity score: 5.1 ± 3.6 DSS
UT-SCC-14; [15]
  drug sensitivity score: 4.27 ± 4.4 DSS
UT-SCC-14; [16]
  drug sensitivity score: 2.27 ± 2 DSS
UT-SCC-106A [12]; [13]
  drug sensitivity score: 11.8 ± 0.81 DSS
UT-SCC-106A [12]; [17]
  drug sensitivity score: 0.567 ± 0.9 DSS
UT-SCC-106A [12]; [14]
  drug sensitivity score: 12.8 ± 2.5 DSS
UT-SCC-106A [12]; [15]
  drug sensitivity score: 1.67 ± 0.47 DSS
UT-SCC-106A [12]; [16]
  drug sensitivity score: 11.7 ± 0.51 DSS
UT-SCC-81; [13]
  drug sensitivity score: 20.4 ± 0.21 DSS
UT-SCC-81; [17]
  drug sensitivity score: 0.933 ± 0.55 DSS
UT-SCC-81; [14]
  drug sensitivity score: 11 ± 1.7 DSS
UT-SCC-81; [15]
  drug sensitivity score: 3.7 ± 1.1 DSS
UT-SCC-81; [16]
  drug sensitivity score: 4.4 ± 0.69 DSS
